Where “and” joins values, the source holds several entries; their conditions need not be identical. Equal entries are not always repeated. Where two headings read alike, the source gives them in different places. Marks after values point to notes of the source that are not given here. Numbered stars: 1 amine (or outer) side, 2 acyl side, 3 side chain; on linkers, the order of the positions; unused ones are H or OH. Bridge positions count the residues as written; N and C are the ends. Square brackets hold non-standard residues; d marks the D form. Ends that are not written are not given here. Peptide text beside a SMILES is read from it. β3hW = N[C@H](CC(=O)O)Cc1c[nH]c2ccccc12; X1 = O=C([C@H]1CNC[C@@H]1N[*:1])[*:2]; β3hE = N[C@@H](CCC(=O)O)CC(=O)O; β3hN = NC(=O)C[C@H](N)CC(=O)O; β3hL = CC(C)C[C@H](N)CC(=O)O; Nle = CCCC[C@H](N)C(=O)O
T1: homodimeric VEGF165 (Homo sapiens, UniProt P15692)
T1 sequence (P15692 1-191 isoform P15692-4): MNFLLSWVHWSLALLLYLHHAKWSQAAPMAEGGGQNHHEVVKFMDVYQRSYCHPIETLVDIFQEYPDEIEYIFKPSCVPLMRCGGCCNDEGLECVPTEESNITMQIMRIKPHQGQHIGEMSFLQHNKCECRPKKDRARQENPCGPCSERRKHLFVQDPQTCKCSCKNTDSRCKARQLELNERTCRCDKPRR

T2: v114 (disulfide 5-15)
T2 chain: VEPNCDIHVMWEWECFERL

B1: VEGF165 VEGF165 (protein)
chain: APMAEGGGQNHHEVVKFMDVYQRSYCHPIETLVDIFQEYPDEIEYIFKPSCVPLMRCGGCCNDEGLECVPTEESNITMQIMRIKPHQGQHIGEMSFLQHNKCECRPKKDRARQEKKSVRGKGKGQKRKRKKSRYKSWSVPCGPCSERRKHLFVQDPQTCKCSCKNTDSRCKARQLELNERTCRCDKPRR

Experiments:
homodimeric VEGF165 = biological target: T1, homodimeric VEGF165; test: competition fluorescence polarization; assay type: binding
toxicity control studies = conditions: at the inhibitory concentrations
proteinase K = proteinase K (Parengyodontium album, UniProt P06873); test: proteinase K degradation; conditions: for stability to proteinase K relative to v114*: ratio of t1/2 to that of v114*, standard conditions
Sequence of proteinase K (P06873 106-384): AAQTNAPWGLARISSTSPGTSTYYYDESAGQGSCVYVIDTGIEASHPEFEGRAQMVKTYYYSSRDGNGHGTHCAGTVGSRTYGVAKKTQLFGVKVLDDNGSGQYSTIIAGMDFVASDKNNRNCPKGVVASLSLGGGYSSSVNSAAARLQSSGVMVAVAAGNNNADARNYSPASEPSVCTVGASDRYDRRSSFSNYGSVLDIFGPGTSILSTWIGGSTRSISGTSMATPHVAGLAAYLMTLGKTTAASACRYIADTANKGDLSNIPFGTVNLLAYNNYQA

[1] = tested on: human umbilical vein endothelial cells (HUVECs); test: VEGF-induced HUVEC proliferation; conditions: 10 ng/mL VEGF; tested above and below the measured Ki
[2] = tested on: human umbilical vein endothelial cells (HUVECs); conditions: cited from earlier work
v114 = biological target: T2, v114; test: competition fluorescence polarization
v107 = test: competition

Molecule	loss of affinity for VEGF (higher Ki) relative to v114* (homodimeric VEGF165; ratio of Ki to Ki of v114*)	toxicity (toxicity control studies)	stability to proteinase K relative to v114* (proteinase K; proteinase K) [fold]	inhibition of VEGF-stimulated HUVEC proliferation, potency in words [1]	further results
CCCC[C@@H]1NC(=O)[C@H](C(C)C)NC(=O)[C@H](Cc2c[nH]cn2)NC(=O)[C@H]([C@@H](C)CC)NC(=O)[C@H](CC(=O)O)NC(=O)[C@@H](NC(=O)[C@H](CC(N)=O)NC(=O)[C@@H]2CCCN2C(=O)C[C@H](CCC(=O)O)NC(=O)[C@@H](N)C(C)C)CSSC[C@@H](C(=O)N[C@@H](Cc2ccccc2)C(=O)N[C@H]2CNC[C@@H]2C(=O)N[C@@H](CCCNC(=N)N)C(=O)N[C@H](CC(N)=O)CC(C)C)NC(=O)[C@H](CCC(=O)O)NC(=O)[C@H](Cc2c[nH]c3ccccc23)NC(=O)C[C@H](CCC(=O)O)NC(=O)[C@H](Cc2c[nH]c3ccccc23)NC1=O [compound 2] (H-V[β3hE]PNCDIHV[Nle]W[β3hE]WECF[X1]R[β3hL]-NH2; disulfide 5-15; N-terminus and C-terminus assumed)	12 fold				
CCCC[C@@H]1NC(=O)[C@H](C(C)C)NC(=O)[C@H](Cc2c[nH]cn2)NC(=O)[C@H]([C@@H](C)CC)NC(=O)[C@H](CC(=O)O)NC(=O)[C@@H](NC(=O)C[C@H](CC(N)=O)NC(=O)[C@@H]2CCCN2C(=O)C[C@H](CCC(=O)O)NC(=O)[C@@H](N)C(C)C)CSSC[C@@H](C(=O)N[C@@H](Cc2ccccc2)C(=O)N[C@H]2CNC[C@@H]2C(=O)N[C@@H](CCCNC(=N)N)C(=O)N[C@H](CC(N)=O)CC(C)C)NC(=O)[C@H](CCC(=O)O)NC(=O)[C@H](Cc2c[nH]c3ccccc23)NC(=O)C[C@H](CCC(=O)O)NC(=O)[C@H](Cc2c[nH]c3ccccc23)NC1=O [compound 3] (H-V[β3hE]P[β3hN]CDIHV[Nle]W[β3hE]WECF[X1]R[β3hL]-NH2; disulfide 5-15; N-terminus and C-terminus assumed)	27 fold and ~ 27 fold	not toxic	15	less potent than v114*	principal cleavage site (proteinase K; proteinase K, mass spectroscopic analysis): between ^nL10 and W11
CCCC[C@@H]1NC(=O)[C@H](C(C)C)NC(=O)[C@H](Cc2c[nH]cn2)NC(=O)[C@H]([C@@H](C)CC)NC(=O)[C@H](CC(=O)O)NC(=O)[C@@H](NC(=O)C[C@H](CC(N)=O)NC(=O)[C@@H]2CCCN2C(=O)C[C@H](CCC(=O)O)NC(=O)[C@@H](N)C(C)C)CSSC[C@@H](C(=O)N[C@@H](Cc2ccccc2)C(=O)N[C@H]2CNC[C@@H]2C(=O)N[C@@H](CCCNC(=N)N)C(=O)N[C@H](CC(N)=O)CC(C)C)NC(=O)[C@H](CCC(=O)O)NC(=O)[C@H](Cc2c[nH]c3ccccc23)NC(=O)C[C@H](CCC(=O)O)NC(=O)C[C@H](Cc2c[nH]c3ccccc23)NC1=O [compound 4] (H-V[β3hE]P[β3hN]CDIHV[Nle][β3hW][β3hE]WECF[X1]R[β3hL]-NH2; disulfide 5-15; N-terminus and C-terminus assumed)		not toxic	~190	less potent than v114*	resistance to proteolysis relative to 3 (proteinase K): > 10 fold; affinity for VEGF lower than that of 3 (homodimeric VEGF165): ~ 3 fold; loss of affinity for VEGF (higher Ki) relative to v114* (homodimeric VEGF165): ~ 77 fold
CC[C@H](C)[C@@H]1NC(=O)[C@H](CC(=O)O)NC(=O)[C@@H](NC(=O)[C@H](CC(N)=O)NC(=O)[C@@H]2CCCN2C(=O)[C@H](CCC(=O)O)NC(=O)[C@@H](N)C(C)C)CSSC[C@@H](C(=O)N[C@@H](Cc2ccccc2)C(=O)N[C@@H](CCC(=O)O)C(=O)N[C@@H](CCCNC(=N)N)C(=O)N[C@@H](CC(C)C)C(N)=O)NC(=O)[C@H](CCC(=O)O)NC(=O)[C@H](Cc2c[nH]c3ccccc23)NC(=O)[C@H](CCC(=O)O)NC(=O)[C@H](Cc2c[nH]c3ccccc23)NC(=O)[C@H](CCSC)NC(=O)[C@H](C(C)C)NC(=O)[C@H](Cc2c[nH]cn2)NC1=O [v114] (H-VEPNCDIHVMWEWECFERL-NH2; disulfide 5-15; N-terminus and C-terminus assumed)					inhibition of VEGF-induced HUVEC proliferation [2]: inhibits
B1					Ki (v114): 70 nM; Ki (v107): 600 nM
